“And” between values parts separate entries of the source, which are not always exact repeats. Identical values can stand only once. “Also recorded” adds a separate entry of the source. Like-named read-outs stand apart in the source and are kept apart here.
What was measured:
P. acnes = format: cell-based; conditions: disc diffusion
Pseudomonas aeruginosa = format: cell-based; conditions: disc diffusion
Candida albicans = format: cell-based; conditions: disc diffusion
Source text: This example describes the method for testing the antimicrobial susceptibility of anthocyanins, anthocyanidins, or metabolites and compounds thereof. The Kirby-Bauer method of disc diffusion was used for testing, following a standard set of procedures recommended by the NCCLS. In this methodology, a set of discs saturated with either testing compounds or a control was placed on inoculated agar plates. The plates were inoculated with organisms including C. difficile, P. acnes, C. prefringens, L. casei, C. albicans, E. coli, ATTC 8739 and ATCC 43895, S. aureus, S. mutans, S. pyogenes, P. aeruginosa and K. pneumonia. The control sample was amoxicillin, an antimicrobial with very effective broad-spectrum antibiotic properties. Samples included delphinidin, pelargonidin, cyanidin CI, 28% cyanindin-3-glucoside (C3G), protocatechuic acid (PCA) and 2,4,6 Trihydroxybenzaldehyde (2,4,6 THBA).
After 18, 24, or 48 hours of incubation, depending upon the microorganism, each plate was examined. The diameters of the zones of complete inhibition were measured, including the diameter of the disc. Zones were measured to the nearest millimeter, using sliding calipers. The size of the zones of inhibition was interpreted by referring to NCCLS standard. […]

[1] = test system: P. aeruginosa (ACTA 9027); format: in vivo; conditions: day five; for bacterial burden: topical 50, 100, 200 mM in water, none statistically significant; for most effective dose: topical, aqueous
[2] = test system: P. aeruginosa (ACTA 27853); format: in vivo; conditions: for kill of Pseudomonas aeruginosa: both reagents and dose; for dose with most significant decrease of bacteria: day two and four; for bactericidal on stripped skin wound: 48 to 96 hours
IGF-1 [3] = experiment: Growth hormone levels in stripped mouse skin by ELISA (Example 5); format: in vivo; conditions: 25 mM; stripped and infected mice skin; 48 hours
Protocol: (§1) Four different conditions were used: mice had back skin tape stripped and the stripped site (wound) was infected with P. aeruginosa; mice had back skin stripped and were not infected, mice had taped stripped, infected and treated with PCA, mice were tape stripped, uninfected, and treated with PCA. When used, the PCA test reagent was applied topically in an aqueous solution on the stripped site at two hours and 24 hours.
(§2) The testing reagents consisted of and PCA formulated at one dose, 25 mM, in an aqueous solution. Levels of IGF-1, TGF-β, and EGF levels in the skin tissue at 48 hours were measured by ELISA. There were two control groups: the stripped skin and the stripped skin and infected.

EGF [4] = experiment: as above; format: in vivo, mice; conditions: 25 mM, infected and treated wound, 48 hours
Protocol: as §1, §2

[5] = Solubility and hydrophilic-lipophile balance; format: physicochemical
eye tissues = experiment: Irritation of eye tissues
[6] = upon ingestion; cited from earlier work
[7] = test system: skin stripped wounds infected with Pseudomonas aeruginosa (ATCC 27853); experiment: Histological assessment of tape-stripped, infected mouse skin wound (Example 6); conditions: for tissue repair as evidenced by histology: two different doses
EGF [8] = experiment: Local growth hormone levels in normal mouse skin (Example 4); format: in vivo, mice; conditions: 100 μM topical, normal rodent skin
Protocol: (§3) Mice were shaved but unstrapped and uninfected (normal rodent skin). The test reagents were applied topically in an aqueous solution on the unstripped site at two hours and daily on day 1, 2 and 3. Testing reagents consisted of […] and PCA formulated at one dose, 100 μM in an aqueous solution.

IGF-1 [9] = experiment: as above; format: in vivo, mice; conditions: 100 μM topical, normal rodent skin
Protocol: as §3

TGF-β = experiment: as above; format: in vivo, mice; conditions: 100 μM topical, normal rodent skin
Protocol: as §3

[10] = 48 and 96 hours, topical, aqueous

O=C(O)c1ccc(O)c(O)c1 [PCA, protocatechuic acid]
bactericidal against P. acnes (P. acnes): bactericidal
susceptibility of P. acnes (P. acnes): susceptible
effect on Pseudomonas aeruginosa (Pseudomonas aeruginosa): some effectiveness
susceptibility of Candida albicans (Candida albicans): susceptible
bacterial burden [1]: decreased the bacterial burden
most effective dose [1]: 50 mM
statistical significance of bacterial burden reduction ([2]; 25 mM, 48 hours): statistically significant
bacterial burden ([2]; 25 mM, both time periods (48 and 96 hours)): reduced the bacterial burden
bacterial burden [2, 10]: decreased the bacterial burden
kill of Pseudomonas aeruginosa ([2]; 48 hours): 10,000 fold
dose with most significant decrease of bacteria [2]: 25 mM
bactericidal on stripped skin wound ([2]; topical): bactericidal
IGF-1 production (IGF-1 [3]): optimizes the IGF-1 production
EGF response level (EGF [4]): lowest
solubility in a lens care solution [5]: soluble
irritation of eye tissues (eye tissues): non-irritating
duration in the body [6]: 8 h
route of elimination [6]: via the urine and feces
time of peak amount [6]: 2 h
collagen between epidermis and dermis ([7]; 25 mM, 48 hours): collagen proliferation; also recorded: collagen layer formation
dermal layer thickness ([7]; 25 mM, 48 hours): thickened
hair follicles ([7]; 25 mM, 48 hours): prominent with multiple cellular lining
inflammation ([7]; 25 mM, 48 hours): abundant inflammation
surface cellularity ([7]; 25 mM, 48 hours): abundant and multiple cell layers
vascularity ([7]; 25 mM, 48 hours): moderate vascularity
dermal layer thickness ([7]; 50 mM, 48 hours): thicker
hair follicles ([7]; 50 mM, 48 hours): double layer of cells
inflammation ([7]; 50 mM, 48 hours): increased in the dermis and below the muscle layer
surface cellularity ([7]; 50 mM, 48 hours): covered with multiple layers of cells
vascularity ([7]; 50 mM, 48 hours): increased vascularity
tissue repair as evidenced by histology [7]: stimulated tissue repair

CC1(C)S[C@@H]2[C@H](NC(=O)[C@H](N)c3ccc(O)cc3)C(=O)N2[C@H]1C(=O)O [Amoxicillin, amoxicillin, reference compound]
effect on Pseudomonas aeruginosa (Pseudomonas aeruginosa): no effect

OC[C@H]1O[C@@H](Oc2cc3c(O)cc(O)cc3[o+]c2-c2ccc(O)c(O)c2)[C@H](O)[C@@H](O)[C@@H]1O [C3G, Cyanidin 3-glucoside]
bactericidal against P. acnes (P. acnes): bactericidal
susceptibility of P. acnes (P. acnes): susceptible
bacterial burden [1]: decreased the bacterial burden
most effective dose [1]: 100 mM
bacterial burden ([2]; 100 mM, 48 and 96 hours): significantly reduced
bacterial burden ([2]; 200 mM, 48 and 96 hours): significantly reduced
bacterial burden [2, 10]: decreased the bacterial burden
kill of Pseudomonas aeruginosa ([2]; 48 hours): 10,000 fold
dose with most significant decrease of bacteria [2]: 100 mM and 200 mM
bactericidal on stripped skin wound ([2]; topical): bactericidal
local level of EGF (EGF [8]): decrease
local level of IGF-1 (IGF-1 [9]): decrease
local level of TGF-β (TGF-β): decrease
dermal layer thickness ([7]; 100 mM, 48 hours): thicker
hair follicles ([7]; 100 mM, 48 hours): single and double cellular lining
inflammation ([7]; 100 mM, 48 hours): inflammation in the dermis and muscular layer and below
surface cellularity ([7]; 100 mM, 48 hours): multiple cellular covering
vascularity ([7]; 100 mM, 48 hours): prominent
dermal layer thickness ([7]; 200 mM, 48 hours): thickened
hair follicles ([7]; 200 mM, 48 hours): single and double cellular lining
inflammation ([7]; 200 mM, 48 hours): inflammation in the dermis and muscular layer
surface cellularity ([7]; 200 mM, 48 hours): multiple cells thick
vascularity ([7]; 200 mM, 48 hours): increased
tissue repair as evidenced by histology [7]: stimulated tissue repair
